Reference: paper PMC10906075 (2024)

Experiments:
[1] = tested on: Phe peptide (Phe1) (designed); assay: OWLS; conditions: 1x PBS, thiol for surface coupling (end not stated), OWLS: 1x PBS, nanopore: PBS (~150 mM salt), 0.5-1.5 V, pH and temperature not given
[2] = tested on: Phe peptide (Phe1) (designed); assay: interface nanopore; conditions: PBS, 1.5 V, 1.0 uN; thiol for surface coupling (end not stated); OWLS: 1x PBS; nanopore: PBS (~150 mM salt), 0.5-1.5 V; pH and temperature not given
[3] = tested on: FAM-labeled phenylalanine aptamer (DNA, aptamer) CTCTCGGGACGACGAGGCTGGATGCATTCGCCGGATGTTCGATGTCGTCCC; assay: strand-displacement fluorescence assay (FAM/dabcyl); conditions: PBS (~150 mM salt), 2 mM MgCl2, dabcyl quencher strand GTCGTCCCGAGAG (S4) displaced, 50 nM aptamer, 150 nM quencher, ~40 min, ambient

## CGACGAGGCTGGATGCATTCGCCGGATGTTCGATGTCG [phenylalanine aptamer]
[1]; peptide retained after buffer rinse
  binding signal (ng/cm2 adsorbed mass): 198
[2]
  binding signal (ms translocation time): 190

## ATTGCTATTCACCGGCGCGGGGCTGGGGCATCGGTAAT [scrambled sequence]
[1]; attributed to nonspecific electrostatic binding
  binding signal (ng/cm2 adsorbed mass): 140
[2]
  binding signal (ms translocation time): 11

## N[C@@H](Cc1c[nH]c2ccccc12)C(=O)O
[3]
  binding: no

## N[C@@H](Cc1ccc(O)cc1)C(=O)O
[3]
  binding: no

## NCCc1ccccc1
[3]
  binding: weak

## NC(=O)[C@@H](N)Cc1ccccc1
[3]
  binding: yes

## N[C@@H](Cc1ccccc1)C(=O)O
[3]
  binding: yes
